Laboratory results from patent publication US5440016A, “Peptides of the formula (KFmoc) ZZZ and their uses” (priority 1993, dated 1995).
Square brackets hold non-standard residues; d marks the D form. Peptide text beside a SMILES is read from it. * marks the point of attachment. Phe(4-NO2) = N[C@@H](Cc1ccc([N+](=O)[O-])cc1)C(=O)O; Met(O2) = CS(=O)(=O)CC[C@H](N)C(=O)O; Fmoc = O=C(OCC1c2ccccc2-c2ccccc21)*; Orn = NCCC[C@H](N)C(=O)O; Thz = O=C(O)[C@@H]1CSCN1; Abu = CC[C@H](N)C(=O)O; Aib = CC(C)(N)C(=O)O; βAla = NCCC(=O)O

Tested on: Human red blood cells (RBCs)
Assay: Hemolytic activity
Format: cell-based
Settings: Table 20, lower part
Method: Each assay was carried out in 96-well culture tissue plates. Four wells per plate contain 125 μl of a non-peptide positive control (1% Triton in de-ionized water), and four wells per plate contain 125 μl of a control blank, phosphate buffered saline (PBS). The hemolytic peptide melittin was used as comparative control. The controls served to detect possible contamination and to calculate the percent hemolysis of each peptide. Human red blood cells (RBCs) were washed with PBS and centrifuged to separate them from the serum. The cells were then resuspended in PBS to a final suspension of 0.5% RBC. 125 μl of this suspension was added to the peptides and controls solution. The release of hemoglobin resulting from the cell lysis was determined by measuring the OD at 414 nm of 100 μl of the supernatant.

Row | SMILES | HD50 (concentration necessary to lyse 50% of the cells)
1 | CS(=O)(=O)CC[C@H](NC(=O)[C@@H](Cc1ccccc1)NC(=O)[C@H](Cc1c[nH]c2ccccc12)NC(=O)[C@H](CCCCN)NC(=O)OCC1c2ccccc2-c2ccccc21)C(N)=O [(KFmoc)Wf(MetO2)-NH2] (Fmoc-KW[dF][Met(O2)]-NH2) | 44 μg/m
2 | NCCCC[C@H](NC(=O)OCC1c2ccccc2-c2ccccc21)C(=O)N[C@@H](Cc1c[nH]c2ccccc12)C(=O)N[C@H](Cc1ccccc1)C(=O)N[C@@H](CCCN)C(N)=O [(KFmoc)Wf(Orn)-NH2] (Fmoc-KW[dF][Orn]-NH2) | 64 μg/m
3 | NCCCC[C@H](NC(=O)OCC1c2ccccc2-c2ccccc21)C(=O)N[C@@H](Cc1c[nH]c2ccccc12)C(=O)N[C@H](Cc1ccccc1)C(=O)N1CSC[C@H]1C(N)=O [(KFmoc)Wf(Thiopro)-NH2] (Fmoc-KW[dF][Thz]-NH2) | 45 μg/m

Same assay, conditions: Tables 18-21

Row | SMILES | HD50 (concentration necessary to lyse 50% of the cells)
4 | CC(C)C[C@H](NC(=O)[C@H](CCCCN)NC(=O)[C@H](Cc1c[nH]c2ccccc12)NC(=O)[C@H](CCCCN)NC(=O)OCC1c2ccccc2-c2ccccc21)C(N)=O [(KFmoc)WKL-NH2] (Fmoc-KWKL-NH2) | 73 µg/mL
5 | CSCC[C@H](NC(=O)[C@H](CCCCN)NC(=O)[C@H](Cc1c[nH]c2ccccc12)NC(=O)[C@H](CCCCN)NC(=O)OCC1c2ccccc2-c2ccccc21)C(N)=O [(KFmoc)WKM-NH2] (Fmoc-KWKM-NH2) | 102 µg/mL
6 | NCCCC[C@H](NC(=O)OCC1c2ccccc2-c2ccccc21)C(=O)N[C@@H](Cc1c[nH]c2ccccc12)C(=O)N[C@@H](CCCCN)C(=O)N[C@@H](CC(N)=O)C(N)=O [(KFmoc)WKN-NH2] (Fmoc-KWKN-NH2) | 204 µg/mL
7 | N=C(N)NCCC[C@H](NC(=O)[C@H](CCCCN)NC(=O)[C@H](Cc1c[nH]c2ccccc12)NC(=O)[C@H](CCCCN)NC(=O)OCC1c2ccccc2-c2ccccc21)C(N)=O [(KFmoc)WKR-NH2] (Fmoc-KWKR-NH2) | 387 µg/mL
8 | NCCCC[C@H](NC(=O)OCC1c2ccccc2-c2ccccc21)C(=O)N[C@@H](Cc1c[nH]c2ccccc12)C(=O)N[C@@H](CCCCN)C(=O)N[C@@H](CO)C(N)=O [(KFmoc)WKS-NH2] (Fmoc-KWKS-NH2) | 206 µg/mL
9 | C[C@@H](O)[C@H](NC(=O)[C@H](CCCCN)NC(=O)[C@H](Cc1c[nH]c2ccccc12)NC(=O)[C@H](CCCCN)NC(=O)OCC1c2ccccc2-c2ccccc21)C(N)=O [(KFmoc)WKT-NH2] (Fmoc-KWKT-NH2) | 367 µg/mL
10 | CC(C)[C@H](NC(=O)[C@H](CCCCN)NC(=O)[C@H](Cc1c[nH]c2ccccc12)NC(=O)[C@H](CCCCN)NC(=O)OCC1c2ccccc2-c2ccccc21)C(N)=O [(KFmoc)WKV-NH2] (Fmoc-KWKV-NH2) | 137 µg/mL
11 | NCCCC[C@H](NC(=O)OCC1c2ccccc2-c2ccccc21)C(=O)N[C@@H](Cc1c[nH]c2ccccc12)C(=O)N[C@@H](CCCCN)C(=O)N[C@@H](Cc1c[nH]c2ccccc12)C(N)=O [(KFmoc)WKW-NH2] (Fmoc-KWKW-NH2) | 37 µg/mL
12 | NCCCC[C@H](NC(=O)OCC1c2ccccc2-c2ccccc21)C(=O)N[C@@H](Cc1c[nH]c2ccccc12)C(=O)N[C@@H](CCCCN)C(=O)N[C@@H](Cc1ccc(O)cc1)C(N)=O [(KFmoc)WKY-NH2] (Fmoc-KWKY-NH2) | 156 µg/mL
13 | NCCCC[C@H](NC(=O)OCC1c2ccccc2-c2ccccc21)C(=O)N[C@@H](Cc1c[nH]c2ccccc12)C(=O)N[C@@H](Cc1ccc(O)cc1)C(=O)N[C@@H](CCCN)C(N)=O [(KFmoc)WY(Orn)-NH2] (Fmoc-KWY[Orn]-NH2) | 62 µg/mL
14 | NCCCC[C@H](NC(=O)OCC1c2ccccc2-c2ccccc21)C(=O)N[C@@H](Cc1c[nH]c2ccccc12)C(=O)N[C@@H](Cc1ccc(O)cc1)C(=O)N1CSC[C@H]1C(N)=O [(KFmoc)WY(Thiopro)-NH2] (Fmoc-KWY[Thz]-NH2) | 488 µg/mL
15 | CC[C@H](NC(=O)[C@H](Cc1ccc(O)cc1)NC(=O)[C@H](Cc1c[nH]c2ccccc12)NC(=O)[C@H](CCCCN)NC(=O)OCC1c2ccccc2-c2ccccc21)C(N)=O [(KFmoc)WY(aABA)-NH2] (Fmoc-KWY[Abu]-NH2) | 114 µg/mL
16 | NCCCC[C@H](NC(=O)OCC1c2ccccc2-c2ccccc21)C(=O)N[C@@H](Cc1c[nH]c2ccccc12)C(=O)N[C@@H](Cc1ccc(O)cc1)C(=O)N[C@@H](CS)C(N)=O [(KFmoc)WYC-NH2] (Fmoc-KWYC-NH2) | 267 µg/mL
17 | NCCCC[C@H](NC(=O)OCC1c2ccccc2-c2ccccc21)C(=O)N[C@@H](Cc1c[nH]c2ccccc12)C(=O)N[C@@H](Cc1ccc(O)cc1)C(=O)NCC(N)=O [(KFmoc)WYG-NH2] (Fmoc-KWYG-NH2) | 376 µg/mL
18 | NCCCC[C@H](NC(=O)OCC1c2ccccc2-c2ccccc21)C(=O)N[C@@H](Cc1c[nH]c2ccccc12)C(=O)N[C@@H](Cc1ccc(O)cc1)C(=O)N[C@@H](Cc1c[nH]cn1)C(N)=O [(KFmoc)WYH-NH2] (Fmoc-KWYH-NH2) | 139 µg/mL
19 | NCCCC[C@H](NC(=O)[C@H](Cc1ccc(O)cc1)NC(=O)[C@H](Cc1c[nH]c2ccccc12)NC(=O)[C@H](CCCCN)NC(=O)OCC1c2ccccc2-c2ccccc21)C(N)=O [(KFmoc)WYK-NH2] (Fmoc-KWYK-NH2) | 65 µg/mL

Row | SMILES | HD50 (concentration necessary to lyse 50% of the cells)
20 | NCCCC[C@H](NC(=O)OCC1c2ccccc2-c2ccccc21)C(=O)N[C@@H](Cc1c[nH]c2ccccc12)C(=O)N[C@@H](Cc1ccc(O)cc1)C(=O)N1CCC[C@H]1C(N)=O [(KFmoc)WYP-NH2] (Fmoc-KWYP-NH2) | 97 µg/mL
21 | N=C(N)NCCC[C@H](NC(=O)[C@H](Cc1ccc(O)cc1)NC(=O)[C@H](Cc1c[nH]c2ccccc12)NC(=O)[C@H](CCCCN)NC(=O)OCC1c2ccccc2-c2ccccc21)C(N)=O [(KFmoc)WYR-NH2] (Fmoc-KWYR-NH2) | 45 µg/mL
22 | C[C@@H](O)[C@H](NC(=O)[C@H](Cc1ccc(O)cc1)NC(=O)[C@H](Cc1c[nH]c2ccccc12)NC(=O)[C@H](CCCCN)NC(=O)OCC1c2ccccc2-c2ccccc21)C(N)=O [(KFmoc)WYT-NH2] (Fmoc-KWYT-NH2) | 53 µg/mL
23 | CC[C@H](C)[C@H](NC(=O)[C@@H](Cc1ccccc1)NC(=O)[C@H](Cc1c[nH]c2ccccc12)NC(=O)[C@H](CCCCN)NC(=O)OCC1c2ccccc2-c2ccccc21)C(N)=O [(KFmoc)WfI-NH2] (Fmoc-KW[dF]I-NH2) | 208 µg/mL
24 | CC(C)C[C@H](NC(=O)[C@@H](Cc1ccccc1)NC(=O)[C@H](Cc1c[nH]c2ccccc12)NC(=O)[C@H](CCCCN)NC(=O)OCC1c2ccccc2-c2ccccc21)C(N)=O [(KFmoc)WfL-NH2] (Fmoc-KW[dF]L-NH2) | 294 µg/mL
25 | NCCCC[C@H](NC(=O)OCC1c2ccccc2-c2ccccc21)C(=O)N[C@@H](Cc1c[nH]c2ccccc12)C(=O)N[C@H](Cc1ccccc1)C(=O)N1CCC[C@H]1C(N)=O [(KFmoc)WfP-NH2] (Fmoc-KW[dF]P-NH2) | 40 µg/mL
26 | N=C(N)NCCC[C@H](NC(=O)[C@@H](Cc1ccccc1)NC(=O)[C@H](Cc1c[nH]c2ccccc12)NC(=O)[C@H](CCCCN)NC(=O)OCC1c2ccccc2-c2ccccc21)C(N)=O [(KFmoc)WfR-NH2] (Fmoc-KW[dF]R-NH2) | 122 µg/mL
27 | NCCCC[C@H](NC(=O)OCC1c2ccccc2-c2ccccc21)C(=O)N[C@@H](Cc1c[nH]c2ccccc12)C(=O)N[C@H](Cc1ccccc1)C(=O)N[C@@H](Cc1ccc(O)cc1)C(N)=O [(KFmoc)WfY-NH2] (Fmoc-KW[dF]Y-NH2) | 42 µg/mL
28 | NCCCC[C@H](NC(=O)OCC1c2ccccc2-c2ccccc21)C(=O)N[C@@H](Cc1c[nH]c2ccccc12)C(=O)N[C@H](Cc1ccccc1)C(=O)N[C@H](Cc1c[nH]c2ccccc12)C(N)=O [(KFmoc)Wfw-NH2] (Fmoc-KW[dF][dW]-NH2) | 36 µg/mL
29 | CC[C@@H](C)[C@@H](NC(=O)[C@@H](CS)NC(=O)[C@H](CCCCN)NC(=O)OCC1c2ccccc2-c2ccccc21)C(=O)NCCC(N)=O [(KFmoc)ci(Bala)-NH2] (Fmoc-K[dC][dI][βAla]-NH2) | 37 µg/mL
30 | CC[C@@H](C)[C@@H](NC(=O)[C@@H](CS)NC(=O)[C@H](CCCCN)NC(=O)OCC1c2ccccc2-c2ccccc21)C(=O)N[C@@H](CCS(C)(=O)=O)C(N)=O [(KFmoc)ci(MetO2)-NH2] (Fmoc-K[dC][dI][Met(O2)]-NH2) | 40 µg/mL
31 | CC[C@@H](C)[C@@H](NC(=O)[C@@H](CS)NC(=O)[C@H](CCCCN)NC(=O)OCC1c2ccccc2-c2ccccc21)C(=O)N[C@@H](Cc1ccc([N+](=O)[O-])cc1)C(N)=O [(KFmoc)ci(NO2 F)-NH2] (Fmoc-K[dC][dI][Phe(4-NO2)]-NH2) | 363 µg/mL
32 | CC[C@@H](C)[C@@H](NC(=O)[C@@H](CS)NC(=O)[C@H](CCCCN)NC(=O)OCC1c2ccccc2-c2ccccc21)C(=O)N[C@@H](CCCN)C(N)=O [(KFmoc)ci(Orn)-NH2] (Fmoc-K[dC][dI][Orn]-NH2) | 77 µg/mL
33 | CC[C@H](NC(=O)[C@H](NC(=O)[C@@H](CS)NC(=O)[C@H](CCCCN)NC(=O)OCC1c2ccccc2-c2ccccc21)[C@H](C)CC)C(N)=O [(KFmoc)ci(aABA)-NH2] (Fmoc-K[dC][dI][Abu]-NH2) | 29 µg/mL
34 | CC[C@@H](C)[C@@H](NC(=O)[C@@H](CS)NC(=O)[C@H](CCCCN)NC(=O)OCC1c2ccccc2-c2ccccc21)C(=O)NC(C)(C)C(N)=O [(KFmoc)ci(aAIB)-NH2] (Fmoc-K[dC][dI][Aib]-NH2) | 28 µg/mL
